# Laboratory results reported in patent US20180022734A1 (Sound Biopharmaceuticals Ltd., priority 2015, published 2018).
# Experiments:
# cancer cell xenograft = assay: Pharmacodynamic tests on mice xenograft transplantation model; assay type: in vivo
# Experimental: (§1) For in vitro tests, compounds were directly dissolved in 10 mM DMSO and stored at −20° C. For in vivo tests, the compounds were dissolved in DMSO and neutralized by Tween 80 (DMSO:Tween=1:1) and further neutralized by PBS (pH 7.4). The final concentrations of DMSO and Tween-80 were 5%.
# 5×10^6 cancer cells were subcutaneously injected to the right side of mouse. Drug was intraperitoneally injected at dosages of 1.5 mg/kg, 7.5 mg/kg, 30 mg/kg to the mice, once a day, for 2 weeks when average tumor size reached 75 to 150 mm^3. The size of the tumor was measured every other day. […] Compound 1 had less efficacy.
# We then performed the test through oral route. 5×10^6 cancer cells were subcutaneously injected to the right side of mouse. Drug was orally administered at dosages of 5 mg/kg, 15 mg/kg, 45 mg/kg to the mice, once a day, for 2 weeks when average tumor size reached 75 to 150 mm^3. The size of the tumor was measured every other day.
# [1] = Oral route (intragastric gavage) study of Sunitinib and compounds 1 and 2 in mice; assay type: in vivo; set-up: AUCpo: unit not given beside the values; details: mice, intragastric gavage
# From the text: Animal experiments: 24 mice in each group were divided into 8 sub-groups.
# [2] = Pharmacokinetics and organ distribution after intravenous administration of Sunitinib, Compound 1 and Compound 2 in mice; set-up: AUCiv: unit not given beside the values; details: mice
# From the text: Relative Exposure(RE)=AUCi sample/AUCi control
# AUCi—area under curve for the i^th organ or tissue; RE>1 indicates targeting at the organ or tissue, with larger RE indicating greater targeting; RE≦1 indicates non-targeting.
# RTE refers to the multiple of the percent of drug content in a tissue of sample group with respect to total drug amount in the body vs. that in a control group. Positive RTE values indicate enhanced targeting effects and the more positive the more the multiple of enhancement and the more the enhanced targeting. In contrast, negative RTE values indicate reduced targeting effects. Value 0 indicate no influence to the tissue.
# 0.083 h, 0.25 h, 0.5 h, 1 h, 3 h, 8 h post injection, blood was taken by eyeball removal and the mice were sacrificed by cervical dislocation. Tissues were perfused with normal saline and livers and kidneys were removed and cleaned with normal saline. The blood samples were centrifuged to obtain supernatants and stored at −20° C. 50 μL plasma sample and 50 μL internal standard (clozapine) working solution was vortexed with 300 μL MeOH and then centrifuged. 150 μL upper organic phase was obtained and mixed with 150 μL water, followed by centrifugation. 10 μL supernatant was sampled for analysis. The tissue samples were weighted and mixed homogeneously with 10 times weight of water. Since the samples were 10-time diluted, the concentration of the tissue would be 10 times the results determined. The heart tissue was 5-time diluted. 100 μL homogenate was mixed with 50 μL internal standard (clozapine) working solution and 300 μL MeOH and then centrifuged. 150 μL upper organic phase was obtained and mixed with 150 μL water, followed by centrifugation. 10 μL supernatant was sampled for analysis.
# [3] = Stability of compounds 1 and 2 in MeOH stock solution and with biomass; assay type: physicochemical
# From the text: No prodrug was detected in organs except for spleen during processing. […] The prodrugs may be converted to Sunitinib or other metabolite during processing or in vivo.
# pSTAT3 = assay: Effects on STAT3 phosphorylation in A549 cell line; assay type: cell-based, human; details: 10 μM
# Experimental: as §1
# [4] = test system: A549; NCI-H460; 786-O; Caki-1; HT-29; MCF-7; assay: 72 hour cytotoxicity (CCK8) in different cell lines; assay type: cell-based, human; details: 72 hours, CCK8; FIG. 5a-f
# From the text: A549 human non-small cell lung cancer cell line, NCI-H460 human non-small cell lung cancer cell line, 786-O human renal cell line, Caki-1 human renal cell line, HT-29 human colon cancer cell line, MDA-MB-231 human breast cancer cell line, and MCF-7 human breast cancer cell line was purchased from Chinese Academy of Science Shanghai Branch. PLC/PRF-5 human hepatoma cell line and Hepal-6 mouse hepatoma cell line were obtained from Institute of Biochemistry and Cell Biology, SIBS, CAS (SIBCB). Cell lines A549, Caki-1, HT-29, MDA-MB-231, MCF-7, PLC/PRF-5 and Hepal-6 were cultured in DMEM medium (Gibco, Life Technologies, China) and cell lines NCI-H460 and 786-O were cultured in RPMI-1640 medium (Gibco, Life Technologies, China). 10% HI fetal bovine serum was purchased from Gibco, Life Technologies, USA and 1% penicillin/streptomycin was obtained from Hyclone.
# Approx. 2,000 cells in 50 μL complete medium were plated on each well of a 96-well plate and incubated at 37° C., 5% CO2 overnight. Drugs at concentrations of 0.02 to 10 μM were dissolved in 0.1% DMSO, followed by addition into each well. After incubation for 72 hours, 10 μL CCK8 (Dojindo) was added into each well, followed by incubation at 37° C. for another 4 hours. The OD values were obtained by TECAN Microplate Reader at 450 nm.
# as §1
# [5] = Acute toxicity test: maximum tolerance dosage (MTD) determination; assay type: in vivo, BALB/c mice
# Experimental: Methods: Femal BALB/c mice, 4-5 weeks old, weighted greater than 17 g, were used for the test. […] The body weights and conditions of the mice were recorded.
# In contrast, the body weights of mice in compound 2 group increased 6.0% in average.
# To further explore the toxicity of the compounds, blood was collected after 14-day treatment of drugs and critical biochemical index were analyzed.
# 786-O cell or A549 cell = assay: Cell morphology and survival rate after 4 to 8 hours incubation; assay type: cell-based, human
# [6] = 19.248 mg/kg Compound 1, 20 mg/kg Compound 2, 20 mg/kg Sunitinib malate
# [7] = 5.13 mg/kg Compound 1, 5.32 mg/kg Compound 2, 5.14 mg/kg Sunitinib malate, All (sum of organs and plasma)
# [8] = 5.13 mg/kg Compound 1, 5.32 mg/kg Compound 2, 5.14 mg/kg Sunitinib malate, heart
# [9] = 5.13 mg/kg Compound 1, 5.32 mg/kg Compound 2, 5.14 mg/kg Sunitinib malate, kidney
# [10] = 5.13 mg/kg Compound 1, 5.32 mg/kg Compound 2, 5.14 mg/kg Sunitinib malate, liver
# [11] = 5.13 mg/kg Compound 1, 5.32 mg/kg Compound 2, 5.14 mg/kg Sunitinib malate, lung
# [12] = 5.13 mg/kg Compound 1, 5.32 mg/kg Compound 2, 5.14 mg/kg Sunitinib malate, plasma
# [13] = 5.13 mg/kg Compound 1, 5.32 mg/kg Compound 2, 5.14 mg/kg Sunitinib malate, spleen
# [14] = oral once a day for 14 days, 175 mg/kg
# [15] = repeated test, oral once a day, 200 mg/kg
compound,measurement,setting,value
"CCN(CC)CCNC(=O)c1c(C)[nH]c(C=C2C(=O)N(CC(=O)Oc3ccccc3)c3ccc(F)cc32)c1C [Compound 2, N-[2-(diethylamino)ethyl]-5-[(5-fluoro-2-oxo-1-(phenylcarboxymethyl)-2,3-indolin-3-ylmethylene)]-2,4-dimethyl-1H-pyrrolidine-3-carboxamide]",efficacy on tumor size,"cancer cell xenograft; intraperitoneally injected 1.5, 7.5, 30 mg/kg once a day for 2 weeks",improved efficacy than Sunitinib
same,efficacy on tumor size,"cancer cell xenograft; orally administered 5, 15, 45 mg/kg once a day for 2 weeks",improved efficacy than Sunitinib
same,"AUC, times higher than Sunitinib",[1],approx. 3.5 times
same,AUC0→∞,[1]; [6],61.5 ng·h/mL
same,Cl,[1]; [6],4094.7 mL/h
same,Cmax,[1]; [6],27.00 ng/mL
same,Tmax,[1]; [6],1.50 h
same,t1/2,[1]; [6],3.89 h
same,AUCpo,"[1]; Dpo 15.00, in ng·h/mL",951.1
same,AUC,[2]; [7],3926.9 ng·h/mL
same,Cmax,[2]; [7],2673.1 ng/mL
same,AUC,[2]; [8],97.0 ng·h/mL
same,Cmax,[2]; [8],122.4 ng/mL
same,AUC,[2]; [9],474.2 ng·h/mL
same,Cmax,[2]; [9],258.0 ng/mL
same,AUC,[2]; [10],1047.1 ng·h/mL
same,Cmax,[2]; [10],742.7 ng/mL
same,AUC,[2]; [11],1235.0 ng·h/mL
same,Cmax,[2]; [11],763.8 ng/mL
same,AUC,[2]; [12],408.8 ng·h/mL
same,AUCall,[2]; [12],408.8 ng·h/mL
same,Cl,[2]; [12],324.9 mL/h
same,Cmax,[2]; [12],564.4 ng/mL
same,Tmax,[2]; [12],4.8 min
same,V,[2]; [12],406.1 mL
same,AUC,[2]; [13],664.8 ng·h/mL
same,Cmax,[2]; [13],221.8 ng/mL
same,AUCiv,"[2]; Div 3.86, in ng·h/mL",408.8
same,"Cmax, times than that of the control",[2]; control = Sunitinib,approx. 5 times
same,RTE analysis: distribution proportions in organs,[2]; vs Sunitinib control,"increased distribution proportions in spleen and lung, decreased proportions in heart and kidney but great enhancement in plasma"
same,RE,"[2]; vs Sunitinib control, heart",0.13
same,RTE,"[2]; vs Sunitinib control, heart",−0.55
same,RE,"[2]; vs Sunitinib control, kidney",0.16
same,RTE,"[2]; vs Sunitinib control, kidney",−0.45
same,RE,"[2]; vs Sunitinib control, liver",0.47
same,RTE,"[2]; vs Sunitinib control, liver",0.66
same,RE,"[2]; vs Sunitinib control, lung",0.28
same,RTE,"[2]; vs Sunitinib control, lung",−0.01
same,RE,"[2]; vs Sunitinib control, plasma",1.12
same,RTE,"[2]; vs Sunitinib control, plasma",2.93
same,RE,"[2]; vs Sunitinib control, spleen",0.22
same,RTE,"[2]; vs Sunitinib control, spleen",−0.23
same,stability in the event of coexisting with biomass,[3]; coexisting with biomass,easy to degrade
same,stability in MeOH stock solution,[3]; stability test period: 7 days,stable
same,inhibition of pSTAT3,pSTAT3,strong inhibition
same,IC50 values among several cell lines,[4],comparable
same,tumor killing effects / cytotoxicity,[4],relatively strong tumor killing effects
same,"critical biochemical index (AST, ALT, CHE, urate, blood urea nitrogen, glucose, LDH, CK, CKMB)","[5]; blood after 14-day treatment, 200 mg/kg","except for AST and ALT, these indices were all within normal ranges"
same,body weights increased in average,[5]; [14],6.0%
same,condition of the mice,[5]; [14],performed similarly with negative control group
same,influence on body weight,"[5]; repeated test, oral once a day, 100 mg/kg",little influence on body weight
same,body weights increased in average,[5]; [15],6.0%
same,condition of the mice,[5]; [15],performed similarly with negative control group
same,cell survival,"786-O cell or A549 cell; 786-O cell or A549 cell, incubated for 8 hours",mass cell death
same,cell morphology,786-O cell or A549 cell; cancer cells incubated for 4 hours,changed to round and suffered from stress
